# Biological target: T1, Human FAAH (Homo sapiens, UniProt O00519)
# T1 construct: made in house; 10000 g pellet suspended in M-PER
# T1 sequence (O00519 1-579): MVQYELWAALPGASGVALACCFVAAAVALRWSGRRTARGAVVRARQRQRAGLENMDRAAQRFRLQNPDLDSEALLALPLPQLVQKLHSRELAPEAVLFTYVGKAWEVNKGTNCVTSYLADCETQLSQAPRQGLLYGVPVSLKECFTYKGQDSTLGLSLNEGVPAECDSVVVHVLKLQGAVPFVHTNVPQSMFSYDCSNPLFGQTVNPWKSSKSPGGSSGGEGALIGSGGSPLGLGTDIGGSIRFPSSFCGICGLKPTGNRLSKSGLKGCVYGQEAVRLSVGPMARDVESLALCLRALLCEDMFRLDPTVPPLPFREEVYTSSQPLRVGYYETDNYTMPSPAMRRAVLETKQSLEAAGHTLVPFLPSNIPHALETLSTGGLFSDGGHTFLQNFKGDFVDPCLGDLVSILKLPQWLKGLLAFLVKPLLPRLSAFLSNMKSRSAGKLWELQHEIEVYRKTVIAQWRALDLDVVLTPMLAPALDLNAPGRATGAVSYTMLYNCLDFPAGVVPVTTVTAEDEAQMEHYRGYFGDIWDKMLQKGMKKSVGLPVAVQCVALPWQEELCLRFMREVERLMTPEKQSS
# Test: Measurement of FAAH inhibitory activity (enzyme fraction from CHO-K1/human FAAH, substrate anandamide [ethanolamine 1-3H])
# Assay type: biochemical
# Conditions: 1 μM test compound; 25 nM anandamide [ethanolamine 1-3H]; 60 ng enzyme fraction; 37° C. for 30 minutes; pH 9.0; read-out: Human FAAH Inhibition Rate at 1 μM (%)
# Protocol: Measurement of FAAH Inhibitory Activity
# (1) Preparation of Enzyme Fraction
# The FAAH gene was cloned by PCR. That is, a human brain library was used as a cDNA library, 5′-[…]-3′ [SEQ ID NO:1] and 5′-[…]-3′ [SEQ ID NO:2] were used as a primer set, and KOD DNA polymerase (Toyobo Co., Ltd.) was used as a DNA polymerase. One cycle of the reaction comprises 95° C. for 30 sec, 55° C. for 30 sec and 72° C. for 2 min, and 45 cycles of the reaction was carried out to obtain an amplified fragment. The amplified fragment was cleaved with restriction enzymes EcoRI and SalI, and then was inserted into a pMSRα vector which had been cleaved with the same restriction enzymes EcoRI and SalI to obtain a pMSRα-human FAAH. A cell line CHO-K1 and the above-obtained plasmid were subjected to a method known per se to prepare the cell line CHO-K1/human FAAH in which human FAAH was stably expressed. The CHO-K1/human FAAH was cultured in a CO2 incubator at 37° C., using a medium (Ham's F-12 medium supplemented with final concentration 10% of fetal bovine serum (FBS) and final concentration 800 μg/ml of G418), and then the cells were harvested. After washing with PBS, the cells were suspended in a buffer (10 mM Tris, 1 mM EDTA and 10 mM MgCl2, all at final concentrations) and disrupted with a Polytron homogenizer. After centrifugation at 900 g, the supernatant was recovered and further centrifuged at 10000 g. A pellet obtained therefrom was suspended in M-PER (Catalog No. 78501; PIERCE) to give an enzyme fraction.
# Using a white walled 96-well plate (Coster Corp.), the test compound at various concentrations, 60 ng of the enzyme fraction and the substrate anandamide [ethanolamine 1-^3H] (final concentration 25 nM) were reacted in 50 μl of a reaction buffer (125 mM Tris-HCl (pH 9.0), 1 mM EDTA, 0.4 mM HEPES, 0.2% glycerol and 0.02% Triton X-100, all at final concentrations) at 37° C. for 30 minutes. The reaction mixture was transferred to a 96-well MultiScreen-HA filter plate (Millipore Corp.) and then was left to stand overnight at room temperature in order to allow the unreacted substrate to be adsorbed on the filter. The plate was washed with PBS using a MultiScreen Vacuum Manifold (Millipore Corp.) and dried. To each well, 50 μl of liquid scintillation cocktail was added and stirred, and then counting was performed with a TopCount (Perkin-Elmer Corp.). The count of a sample containing a solvent instead of the test compound was taken as 0%, and the count at zero time was taken as 100%, to calculate the inhibitory activity of the compound.
row,Structure (SMILES),inhibition at 1 µM
1,"CC(=O)Nc1ccc(NC(=O)N2CCN(c3cccc(-c4ccsc4)c3)CC2)cc1 [Example 10, N-[4-(Acetylamino)phenyl]-4-[3-(3-thienyl)phenyl]piperazine-1-carboxamide]",108%
2,"O=C(Nc1cccnc1)N1CCN(c2cccc(-c3ccsc3)c2)CC1 [Example 12, N-Pyridin-3-yl-4-[3-(3-thienyl)phenyl]piperazine-1-carboxamide]",104%
3,"O=C(Nc1cccnc1)N1CCN(c2cc(-c3ccccc3)ccn2)CC1 [Example 4, 4-(4-Phenylpyridin-2-yl)-N-pyridin-3-ylpiperazine-1-carboxamide]",74%
4,"O=C(Nc1cccnc1)N1CCN(c2ccc(-c3ccccc3)cn2)CC1 [Example 8, 4-(5-Phenylpyridin-2-yl)-N-pyridin-3-ylpiperazine-1-carboxamide]",98%
5,"O=C(Nc1cccnc1)N1CCN(c2ccc(-c3ccccc3)cc2)CC1 [Example 14, 4-Biphenyl-4-yl-N-pyridin-3-ylpiperazine-1-carboxamide]",101%
6,"O=C(Nc1cccnn1)N1CCN(c2cc(-c3ccccc3)ccn2)CC1 [Example 6, 4-(4-Phenylpyridin-2-yl)-N-pyridazin-3-ylpiperazine-1-carboxamide]",91%

# Now from value to compound:
row,inhibition at 1 µM,Structure (SMILES)
1,100%,"Cc1noc(NC(=O)N2CCN(c3cccc(-c4ccsc4)c3)CC2)c1C [Example 11, N-(3,4-Dimethylisoxazol-5-yl)-4-[3-(3-thienyl)phenyl]piperazine-1-carboxamide]"
2,104%,"Cc1noc(NC(=O)N2CCN(c3cccc(-c4ccccc4)c3)CC2)c1C [Example 2, 4-Biphenyl-3-yl-N-(3,4-dimethylisoxazol-5-yl)piperazine-1-carboxamide]"
3,103%,"O=C(Nc1cccnc1)N1CCN(c2cccc(-c3ccccc3)c2)CC1 [Example 1, 4-Biphenyl-3-yl-N-pyridin-3-ylpiperazine-1-carboxamide]"
4,101%,"CC(=O)Nc1ccc(NC(=O)N2CCN(c3cccc(-c4ccccc4)c3)CC2)cn1 [Example 3, N-[6-(Acetylamino)pyridin-3-yl]-4-biphenyl-3-ylpiperazine-1-carboxamide]"
5,102%,"Cc1noc(NC(=O)N2CCN(c3ccc(-c4ccccc4)cc3)CC2)c1C [Example 15, 4-Biphenyl-4-yl-N-(3,4-dimethylisoxazol-5-yl)piperazine-1-carboxamide]"
6,105%,"O=C(Nc1cccnn1)N1CCN(c2cccc(-c3ccccc3)c2)CC1 [Example 9, 4-Biphenyl-3-yl-N-pyridazin-3-ylpiperazine-1-carboxamide]"
7,104%,"O=C(Nc1cccnc1)N1CCN(c2cccc(-c3ccoc3)c2)CC1 [Example 13, 4-[3-(3-Furyl)phenyl]-N-pyridin-3-ylpiperazine-1-carboxamide]"
8,94%,"Cc1noc(NC(=O)N2CCN(c3cc(-c4ccccc4)ccn3)CC2)c1C [Example 5, N-(3,4-Dimethylisoxazol-5-yl)-4-(4-phenylpyridin-2-yl)piperazine-1-carboxamide]"
9,102%,"Cc1noc(NC(=O)N2CCN(c3ccc(-c4ccccc4)cn3)CC2)c1C [Example 7, N-(3,4-Dimethylisoxazol-5-yl)-4-(5-phenylpyridin-2-yl)piperazine-1-carboxamide]"

# Reference: patent US7812025B2, “Brain/neuronal cell-protecting agent and therapeutic agent for sleep disorder” (Takeda Pharmaceutical Company Limited, priority 2005, dated 2010)
